Results: patent publication US7378497B2, “Potassium channels and genes encoding these potassium channels” (NeuroSearch A/S, priority 1999, dated 2008)

Legend:
KCNQ3/KCNQ4 = target: T1, KCNQ3/KCNQ4 (Homo sapiens, UniProt O43525+P56696, H455Q); assay: Two-electrode voltage clamp of KCNQ3+KCNQ4 co-expression currents in Xenopus oocytes; format: cell-based; conditions: 200 μM Linopirdine
T1 construct: A complete cDNA was assembled and cloned into the oocyte expression vector PTLN; expressed in transfected cells; host or cells: Xenopus oocytes (cRNAs co-injected 1:1)
T1 sequence (P56696 1-695 H455Q): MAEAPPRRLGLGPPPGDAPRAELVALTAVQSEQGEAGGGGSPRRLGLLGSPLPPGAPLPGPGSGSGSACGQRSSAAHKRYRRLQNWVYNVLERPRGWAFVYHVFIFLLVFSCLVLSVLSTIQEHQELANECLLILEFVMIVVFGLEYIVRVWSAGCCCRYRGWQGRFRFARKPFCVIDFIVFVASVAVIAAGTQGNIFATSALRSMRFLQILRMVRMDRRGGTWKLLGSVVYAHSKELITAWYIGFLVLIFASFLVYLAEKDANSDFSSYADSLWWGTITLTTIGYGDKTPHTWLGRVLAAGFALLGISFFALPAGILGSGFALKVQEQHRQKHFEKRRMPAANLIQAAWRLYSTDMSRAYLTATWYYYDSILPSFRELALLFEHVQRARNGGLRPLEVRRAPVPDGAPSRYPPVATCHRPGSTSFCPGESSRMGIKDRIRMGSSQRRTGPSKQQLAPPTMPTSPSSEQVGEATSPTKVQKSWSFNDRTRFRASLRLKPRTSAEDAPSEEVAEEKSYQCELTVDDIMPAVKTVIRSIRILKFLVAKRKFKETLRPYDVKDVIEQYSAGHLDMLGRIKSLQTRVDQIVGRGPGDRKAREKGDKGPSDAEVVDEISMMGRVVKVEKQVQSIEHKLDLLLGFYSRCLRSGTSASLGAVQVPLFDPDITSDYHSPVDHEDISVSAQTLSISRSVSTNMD
T1 sequence (O43525 1-872): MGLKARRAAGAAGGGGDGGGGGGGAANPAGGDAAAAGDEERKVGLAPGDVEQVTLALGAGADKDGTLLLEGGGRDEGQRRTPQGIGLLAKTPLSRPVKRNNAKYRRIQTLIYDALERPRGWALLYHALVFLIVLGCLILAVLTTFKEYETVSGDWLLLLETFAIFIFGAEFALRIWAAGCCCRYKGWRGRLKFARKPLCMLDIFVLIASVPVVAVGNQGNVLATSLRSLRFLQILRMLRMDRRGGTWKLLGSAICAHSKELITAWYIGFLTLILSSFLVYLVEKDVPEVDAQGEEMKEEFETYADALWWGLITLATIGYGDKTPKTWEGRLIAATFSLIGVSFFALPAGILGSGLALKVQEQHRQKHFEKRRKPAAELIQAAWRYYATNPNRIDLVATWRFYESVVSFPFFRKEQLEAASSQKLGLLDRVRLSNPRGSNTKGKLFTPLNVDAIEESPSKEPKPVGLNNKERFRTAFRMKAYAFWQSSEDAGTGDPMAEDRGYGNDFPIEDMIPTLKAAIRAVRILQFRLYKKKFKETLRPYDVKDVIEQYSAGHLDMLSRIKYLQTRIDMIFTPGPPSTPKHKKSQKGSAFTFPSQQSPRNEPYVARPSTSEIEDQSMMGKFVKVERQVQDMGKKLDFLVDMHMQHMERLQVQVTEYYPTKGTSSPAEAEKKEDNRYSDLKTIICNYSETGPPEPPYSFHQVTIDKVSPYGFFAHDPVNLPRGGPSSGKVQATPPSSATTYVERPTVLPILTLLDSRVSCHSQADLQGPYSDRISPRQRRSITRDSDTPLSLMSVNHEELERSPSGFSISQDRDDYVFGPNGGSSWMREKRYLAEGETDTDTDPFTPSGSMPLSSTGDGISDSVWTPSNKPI
Protocol: (§1) KCNQ4 was expressed in Xenopus oocytes and its activity was investigated by two-electrode voltage clamping.
(§2) After linearization of the KCNQ4-containing PTLN vector with Hpal, capped cRNA was transcribed in vitro using the mMessage mMachine cRNA synthesis kit (Ambion). Usually 5-15 ng of cRNA were injected into Xenopus oocytes previously isolated by manual defolliculation and short collagenase treatment. In co-expression experiments cRNAs were injected at a 1:1 ratio. Oocytes were kept at 17° C. in modified Barth's solution (90 mM NaCl, 1 mM KCl, 0.41 mM CaCl2, 0.33 mM Ca(NO3)2, 0.82 mM MgSO4, 10 mM HEPES, 100 U penicillin-100 μg streptomycin/ml, pH 7.6).
(§3) Standard two-electrode voltage-clamp measurements were performed at room temperature 2-4 days after injection using a Turbotec 05 amplifier (npi instruments, Tamm, Germany) and pClamp 5.5 software (Axon Instruments). Currents were usually recorded in ND98 solution (see Table 2). Solutions for Na^+/K^+replacement experiments were prepared from an appropriate mixture of solution KD100 (100 mM KCl) and ND100 (100 mM NaCl) to yield the stated concentrations of Na^+and K^+. Linopirdine (RBI, Natick, Mass.) was prepared as a 100 mM stock solution in DMSO and added to a final concentration of 200 μM to ND98.

KCNQ4 = target: T2, KCNQ4 (Homo sapiens, UniProt P56696, H455Q); assay: Two-electrode voltage clamp of KCNQ4 currents in Xenopus oocytes; format: cell-based; conditions: 200 μM Linopirdine
T2 construct: A complete cDNA was assembled and cloned into the oocyte expression vector PTLN; expressed in transfected cells; host or cells: Xenopus oocytes (cRNA injection)
T2 sequence (P56696 1-695 H455Q): T1 sequence (P56696 1-695 H455Q)
Protocol: as §1, §2, §3

KCNQ2/KCNQ3 channels = KCNQ2/KCNQ3 channels (Homo sapiens, UniProt O43525+O43526, N780T); conditions: 200 μM Linopirdine; cited from earlier work
Chain of KCNQ2/KCNQ3 channels (O43526 1-844 isoform O43526-3 N752T, one chain of several): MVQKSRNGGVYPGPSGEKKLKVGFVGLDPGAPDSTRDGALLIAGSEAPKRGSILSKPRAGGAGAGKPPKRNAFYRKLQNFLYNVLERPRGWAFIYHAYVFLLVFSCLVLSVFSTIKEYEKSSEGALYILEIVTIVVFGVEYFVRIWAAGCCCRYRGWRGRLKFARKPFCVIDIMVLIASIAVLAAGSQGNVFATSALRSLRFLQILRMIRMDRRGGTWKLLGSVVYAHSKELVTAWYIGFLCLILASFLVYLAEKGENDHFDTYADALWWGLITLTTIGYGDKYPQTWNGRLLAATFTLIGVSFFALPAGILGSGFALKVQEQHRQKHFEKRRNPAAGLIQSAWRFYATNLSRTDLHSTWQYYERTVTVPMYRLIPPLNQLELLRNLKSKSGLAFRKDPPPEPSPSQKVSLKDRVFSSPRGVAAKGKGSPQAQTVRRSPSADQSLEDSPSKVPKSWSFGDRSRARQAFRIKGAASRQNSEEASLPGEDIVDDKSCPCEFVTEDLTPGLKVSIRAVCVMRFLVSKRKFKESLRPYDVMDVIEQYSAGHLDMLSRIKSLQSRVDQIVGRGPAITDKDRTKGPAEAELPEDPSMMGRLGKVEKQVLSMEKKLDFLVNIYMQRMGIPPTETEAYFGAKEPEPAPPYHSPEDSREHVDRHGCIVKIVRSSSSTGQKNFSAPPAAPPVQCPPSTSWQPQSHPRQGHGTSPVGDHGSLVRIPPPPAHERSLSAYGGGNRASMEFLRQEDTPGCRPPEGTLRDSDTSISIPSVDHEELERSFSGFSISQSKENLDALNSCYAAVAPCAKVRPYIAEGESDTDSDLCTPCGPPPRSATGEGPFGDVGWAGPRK

Structure (SMILES): O=C1N(c2ccccc2)c2ccccc2C1(Cc1ccncc1)Cc1ccncc1 [Linopirdine, 1,3-dihydro-1-phenyl-3,3-bis(4-pyridylmethyl)-2H-indol-2-one]
- time to steady-state inhibition of KCNQ3+KCNQ4 currents after addition (KCNQ3/KCNQ4): ~3 min
- inhibition of KCNQ3/KCNQ4 co-expression current (KCNQ3/KCNQ4; currents measured at +40 mV, Xenopus oocytes, ND98): ≈ 75%
- time to steady-state inhibition of KCNQ4 currents after addition (KCNQ4): ~1 min
- inhibition at 200 µM (KCNQ4; currents measured at +40 mV, Xenopus oocytes, ND98, read-out: inhibition of KCNQ4 current): ~30%
- inhibition of KCNQ2/KCNQ3 channels (KCNQ2/KCNQ3 channels): nearly completely inhibits
